# In US10829520B2, “Beta-hairpin peptidomimetics” (POLYPHOR AG, priority 2015, dated 2020):
# Where a SMILES comes first, the peptide text is derived from it. Bridges are numbered along the chain shown (N, C = ends). [ ]: non-standard residue; d: D form. Tle = CC(C)(C)[C@H](N)C(=O)O; dDab = NCC[C@@H](N)C(=O)O; Nle = CCCC[C@H](N)C(=O)O; Orn = NCCC[C@H](N)C(=O)O; Dab = NCC[C@H](N)C(=O)O; Dap = NC[C@H](N)C(=O)O
# Assays:
# Format in all cases: cell-based
# [1] = tested on: human red blood cells (hRBC); assay: Hemolysis of human red blood cells; conditions: red cells of human, 1 h, 100 μg/mL
# Outline: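 Peptides at 100 μg/mL were incubated with PBS-washed fresh human erythrocytes (20% v/v, ~0.9×10^9 cells/mL final) for 1 h at 37° C. with shaking. Supernatant OD540 was read after 8-fold dilution; percent hemolysis was expressed relative to the 2.5% Triton X-100 full-lysis control, with PBS/0.001% acetic acid as 0%.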
# [2] = tested on: Pseudomonas aeruginosa ATCC 27853; conditions: ATCC 27853
# Outline: (§1)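 Peptide MICs were determined by CLSI broth microdilution in cation-adjusted Mueller-Hinton II broth with 0.002% polysorbate 80, inoculum approx. 10^6 CFU/mL. Two-fold serial dilutions of peptide were tested. MIC was the lowest concentration (μg/mL) with no visible growth after 18-20 hours at 35° C.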
# [3] = tested on: Klebsiella pneumoniae SSI #3010; conditions: SSI #3010
# Outline: as §1
# [4] = tested on: Klebsiella pneumoniae 968733; conditions: 968733
# [5] = tested on: Acinetobacter baumannii 872842; conditions: 872842
# [6] = tested on: Acinetobacter baumannii DSM 30008; conditions: DSM 30008
# Outline: as §1
# [7] = tested on: Escherichia coli ATCC 25922; conditions: ATCC 25922
# Outline: as §1
# [8] = tested on: Escherichia coli 926415; conditions: 926415
Structure (SMILES),Hemolysis at 100 μg/mL [1] [%],Pseudomonas aeruginosa ATCC 27853 MIC [2] [µg/mL],Klebsiella pneumoniae SSI #3010 MIC [3] [µg/mL],Klebsiella pneumoniae 968733 MIC [4] [µg/mL],Acinetobacter baumannii 872842 MIC [5] [µg/mL],Acinetobacter baumannii DSM 30008 MIC [6] [µg/mL],Escherichia coli ATCC 25922 MIC [7] [µg/mL],Escherichia coli 926415 MIC [8] [µg/mL]
CCCC[C@@H]1NC(=O)[C@@H]2CCCN2C(=O)[C@H]2CCCN2C(=O)[C@H](CO)NC(=O)[C@H](CO)NC(=O)[C@H](C(C)(C)C)NC(=O)[C@@H](NC(=O)[C@@H](N)Cc2c[nH]c3ccccc23)CSSC[C@@H](C(=O)N[C@@H](CCCN)C(=O)N[C@H](C)C(=O)N[C@H](CCN)C(=O)N[C@H]2CCNC(=O)[C@H]([C@@H](C)O)NC(=O)[C@H](CCN)NC(=O)[C@H](CCN)NC(=O)[C@H](CC(C)C)NC(=O)[C@@H](Cc3ccccc3)NC(=O)[C@H](CCN)NC2=O)NC(=O)[C@H](Cc2ccc(O)cc2)NC(=O)[C@H](CO)NC1=O [Ex. 104] (H-WC[Tle]SS[dP]P[Nle]SYC[Orn][dA][dDab][Dab][Dab][dF]L[Dab][Dab]T; disulfide 2-11; lactam 15-C),3,1,0.5,1,0.25,0.5,0.25,0.25
CCCC[C@@H]1NC(=O)[C@@H]2CCCN2C(=O)[C@H]2CCCN2C(=O)[C@H](CO)NC(=O)[C@H](CO)NC(=O)[C@H](C(C)(C)C)NC(=O)[C@@H](NC(=O)[C@@H](N)Cc2c[nH]c3ccccc23)CSSC[C@@H](C(=O)N[C@@H](CCCN)C(=O)N[C@H](Cc2ccccc2)C(=O)N[C@H](CCN)C(=O)N[C@H]2CCNC(=O)[C@H]([C@@H](C)O)NC(=O)[C@H](CCN)NC(=O)[C@H](CCN)NC(=O)[C@H](CC(C)C)NC(=O)[C@@H](Cc3ccccc3)NC(=O)[C@H](CCN)NC2=O)NC(=O)[C@H](Cc2ccc(O)cc2)NC(=O)[C@H](CO)NC1=O [Ex. 105] (H-WC[Tle]SS[dP]P[Nle]SYC[Orn][dF][dDab][Dab][Dab][dF]L[Dab][Dab]T; disulfide 2-11; lactam 15-C),1.7,1,0.5,1,0.25,0.5,0.25,0.125
CCCC[C@@H]1NC(=O)[C@@H]2CCCN2C(=O)[C@H]2CCCN2C(=O)[C@H](CO)NC(=O)[C@H](CO)NC(=O)[C@H](C(C)(C)C)NC(=O)[C@@H](NC(=O)[C@@H](N)Cc2c[nH]c3ccccc23)CSSC[C@@H](C(=O)N[C@H](CCN)C(=O)N[C@@H](CCN)C(=O)N[C@H](CCN)C(=O)N[C@H]2CCNC(=O)[C@H]([C@@H](C)O)NC(=O)[C@H](CCN)NC(=O)[C@H](CCN)NC(=O)[C@H](CC(C)C)NC(=O)[C@@H](Cc3ccccc3)NC(=O)[C@H](CCN)NC2=O)NC(=O)[C@H](Cc2ccc(O)cc2)NC(=O)[C@H](CO)NC1=O [Ex. 106] (H-WC[Tle]SS[dP]P[Nle]SYC[dDab][Dab][dDab][Dab][Dab][dF]L[Dab][Dab]T; disulfide 2-11; lactam 15-C),1,0.25,0.125,0.5,0.125,0.25,0.125,0.125
CCCC[C@@H]1NC(=O)[C@@H]2CCCN2C(=O)[C@H]2CCCN2C(=O)[C@H](CO)NC(=O)[C@H](CO)NC(=O)[C@H](C(C)(C)C)NC(=O)[C@@H](NC(=O)[C@@H](N)Cc2c[nH]c3ccccc23)CSSC[C@@H](C(=O)N[C@@H](C(=O)N[C@@H](CCN)C(=O)N[C@H](CCN)C(=O)N[C@H]2CCNC(=O)[C@H]([C@@H](C)O)NC(=O)[C@H](CCN)NC(=O)[C@H](CCN)NC(=O)[C@H](CC(C)C)NC(=O)[C@@H](Cc3ccccc3)NC(=O)[C@H](CCN)NC2=O)[C@H](C)O)NC(=O)[C@H](Cc2ccc(O)cc2)NC(=O)[C@H](CO)NC1=O [Ex. 107] (H-WC[Tle]SS[dP]P[Nle]SYC[dT][Dab][dDab][Dab][Dab][dF]L[Dab][Dab]T; disulfide 2-11; lactam 15-C),0.3,0.25,0.5,0.5,0.125,0.0625,0.125,0.125
CCCC[C@@H]1NC(=O)[C@@H]2CCCN2C(=O)[C@H]2CCCN2C(=O)[C@H](CO)NC(=O)[C@H](CO)NC(=O)[C@H](C(C)(C)C)NC(=O)[C@@H](NC(=O)[C@@H](N)Cc2c[nH]c3ccccc23)CSSC[C@@H](C(=O)N[C@@H](CCC(=O)O)C(=O)N[C@@H](CCN)C(=O)N[C@@H](CCN)C(=O)N[C@H]2CCNC(=O)[C@H]([C@@H](C)O)NC(=O)[C@H](CCN)NC(=O)[C@H](CCN)NC(=O)[C@H](CC(C)C)NC(=O)[C@@H](Cc3ccccc3)NC(=O)[C@H](CCN)NC2=O)NC(=O)[C@H](Cc2ccc(O)cc2)NC(=O)[C@H](CO)NC1=O [Ex. 108] (H-WC[Tle]SS[dP]P[Nle]SYCE[Dab][Dab][Dab][Dab][dF]L[Dab][Dab]T; disulfide 2-11; lactam 15-C),2,1,2,2,1,1,1,0.5
CCCC[C@@H]1NC(=O)[C@@H]2CCCN2C(=O)[C@H]2CCCN2C(=O)[C@H](CO)NC(=O)[C@H](CO)NC(=O)[C@H](C(C)(C)C)NC(=O)[C@@H](NC(=O)[C@@H](N)Cc2c[nH]c3ccccc23)CSSC[C@@H](C(=O)N[C@H](Cc2ccc(O)cc2)C(=O)N[C@@H](CCN)C(=O)N[C@@H](CCN)C(=O)N[C@H]2CCNC(=O)[C@H]([C@@H](C)O)NC(=O)[C@H](CCN)NC(=O)[C@H](CCN)NC(=O)[C@H](CC(C)C)NC(=O)[C@@H](Cc3ccccc3)NC(=O)[C@H](CCN)NC2=O)NC(=O)[C@H](Cc2ccc(O)cc2)NC(=O)[C@H](CO)NC1=O [Ex. 109] (H-WC[Tle]SS[dP]P[Nle]SYC[dY][Dab][Dab][Dab][Dab][dF]L[Dab][Dab]T; disulfide 2-11; lactam 15-C),<1,1,1,1,0.5,0.5,0.25,0.5
CC(=O)N[C@@H](Cc1c[nH]c2ccccc12)C(=O)N[C@H]1CSSC[C@@H](C(=O)N[C@@H](CCCN)C(=O)N[C@H](CCN)C(=O)N[C@@H](CCN)C(=O)N[C@H]2CCNC(=O)[C@H]([C@@H](C)O)NC(=O)[C@H](CCN)NC(=O)[C@H](CCN)NC(=O)[C@H](CC(C)C)NC(=O)[C@@H](Cc3ccccc3)NC(=O)[C@H](CCN)NC2=O)NC(=O)[C@H](Cc2ccc(O)cc2)NC(=O)[C@H](CN)NC(=O)[C@H](Cc2ccccc2)NC(=O)[C@H](CC(C)C)NC(=O)[C@H]2CCCN2C(=O)[C@H](CO)NC(=O)[C@H](C)NC(=O)[C@H](C(C)(C)C)NC1=O [Ex. 110] (Ac-WC[Tle]AS[dP]LF[Dap]YC[Orn][dDab][Dab][Dab][Dab][dF]L[Dab][Dab]T; disulfide 2-11; lactam 15-C),2,1,0.5,2,0.25,0.25,0.5,0.25
CC(=O)N[C@@H](Cc1c[nH]c2ccccc12)C(=O)N[C@H]1CSSC[C@@H](C(=O)N[C@@H](CCCN)C(=O)N[C@H](C(=O)N[C@@H](CCN)C(=O)N[C@H]2CCNC(=O)[C@H]([C@@H](C)O)NC(=O)[C@H](CCN)NC(=O)[C@H](CCN)NC(=O)[C@H](CC(C)C)NC(=O)[C@@H](Cc3ccccc3)NC(=O)[C@H](CCN)NC2=O)[C@@H](C)O)NC(=O)[C@H](Cc2ccc(O)cc2)NC(=O)[C@H](CO)NC(=O)[C@H](CC(C)C)NC(=O)[C@@H]2CCCN2C(=O)[C@H]2CCCN2C(=O)[C@H](CO)NC(=O)[C@H](C)NC(=O)[C@H](Cc2c[nH]c3ccccc23)NC1=O [Ex. 111] (Ac-WCWAS[dP]PLSYC[Orn]T[Dab][Dab][Dab][dF]L[Dab][Dab]T; disulfide 2-11; lactam 15-C),2,1,1,1,0.25,0.25,0.25,0.25
